Test results reported in PubChem BioAssay (NCI).
“And” between values parts separate entries of the source, which are not always exact repeats. Equal values may be shown once.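 Compound exposure: 48 hours, 5 concentrations, 96-well plates. GI50 = concentration required for 50% inhibition of growth. TGI marks complete inhibition of growth.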

Assays:
Experiment in all cases: NCI tumour cell line growth inhibition, 48 h
[1] = tested on: MDA-MB-231 breast
[2] = tested on: P388 leukemia
[3] = tested on: DMS 114 small cell lung
[4] = tested on: DMS 273 small cell lung
[5] = tested on: IGROV1 ovarian
[6] = tested on: SN12C renal
[7] = tested on: UACC-257 melanoma
[8] = tested on: HCT-15 colon
[9] = tested on: M19-MEL melanoma
[10] = tested on: NCI-H460 lung
[11] = tested on: TK-10 renal
[12] = tested on: SK-MEL-2 melanoma
[13] = tested on: XF 498 CNS
[14] = tested on: NCI-H226 lung
[15] = tested on: OVCAR-8 ovarian
[16] = tested on: MALME-3M melanoma
[17] = tested on: UACC-62 melanoma
[18] = tested on: SK-MEL-28 melanoma
[19] = tested on: SNB-75 CNS
[20] = tested on: SK-OV-3 ovarian
[21] = tested on: HOP-62 NSCLC
[22] = tested on: LOX IMVI melanoma
[23] = tested on: OVCAR-5 ovarian
[24] = tested on: HCC-2998 colon
[25] = tested on: MCF7 breast
[26] = tested on: MDA-N
[27] = tested on: U251 CNS
[28] = tested on: K-562 leukemia
[29] = tested on: PC-3 prostate
[30] = tested on: SR leukemia
[31] = tested on: CCRF-CEM leukemia
[32] = tested on: RPMI-8226 leukemia
[33] = tested on: HT29 colon
[34] = tested on: HOP-18 NSCLC
[35] = tested on: T-47D breast
[36] = tested on: RXF 393 renal
[37] = tested on: BT-549 breast
[38] = tested on: P388/ADR leukemia
[39] = tested on: SF-295 CNS
[40] = tested on: KM20L2 colon
[41] = tested on: ACHN renal
[42] = tested on: MOLT-4 leukemia
[43] = tested on: CAKI-1 renal
[44] = tested on: HCT-116 colon
[45] = tested on: EKVX NSCLC
[46] = tested on: A498 renal
[47] = tested on: HL-60(TB) leukemia
[48] = tested on: M14 melanoma
[49] = tested on: A549 NSCLC
[50] = tested on: SK-MEL-5 melanoma
[51] = tested on: SW-620 colon
[52] = tested on: HOP-92 NSCLC
[53] = tested on: MDA-MB-435
[54] = tested on: UO-31 renal

C[C@@]1(CO)[C@H](O)CC[C@@]2(C)[C@H]1CC[C@H]1C[C@@H]3C[C@@]12CC[C@@]3(O)COC(=O)CN
GI50 [1]: 45.4 µM
TGI [1]: > 89.6 µM and 172 µM
TGI [2]: 209 µM
TGI [3]: > 500 µM and 170 µM
GI50 [4]: 0.25 µM
TGI [4]: 144 µM
TGI [5]: > 500 µM and 181 µM
TGI [6]: 65.7 µM and > 500 µM and 183 µM
GI50 [7]: 133 µM and 99.4 µM
TGI [7]: > 72.2 µM and > 500 µM and 239 µM
TGI [8]: > 500 µM and 231 µM
TGI [9]: > 500 µM and 161 µM
GI50 [10]: 0.176 µM and 1.37 µM and 0.317 µM
GI50 [11]: 116 µM
TGI [11]: > 81.1 µM and 193 µM
GI50 [12]: > 500 µM
TGI [12]: > 89.6 µM and > 500 µM and 177 µM
GI50 [13]: > 70.5 µM and 54.2 µM and 16.8 µM
TGI [13]: 347 µM and 176 µM
TGI [14]: > 500 µM and 238 µM
GI50 [15]: 2.29 µM and 12.6 µM and 4.01 µM
TGI [16]: > 500 µM and 189 µM
TGI [17]: > 500 µM and 131 µM
GI50 [18]: 83.9 µM and 150 µM
TGI [18]: > 500 µM and 252 µM
TGI [19]: 58.3 µM and > 500 µM and 258 µM
TGI [20]: 99.8 µM and > 500 µM and 186 µM
GI50 [21]: 4.69 µM and 23.3 µM
TGI [21]: > 78.7 µM and > 500 µM and 147 µM
GI50 [22]: 3.62 µM and 6.65 µM
GI50 [23]: 31.2 µM and 137 µM and 33.9 µM
TGI [23]: > 93.2 µM and > 500 µM and 188 µM
GI50 [24]: > 500 µM and 72.6 µM
GI50 [25]: 3.17 µM and 21.2 µM and 3.87 µM
TGI [26]: > 86.9 µM and 180 µM
GI50 [27]: 4.35 µM and 7.51 µM
TGI [27]: 66 µM and 50 µM and 178 µM
GI50 [28]: 12.9 µM
TGI [28]: 68.4 µM and > 5 µM and 231 µM
GI50 [29]: 3.29 µM
TGI [29]: 150 µM
GI50 [30]: 1.66 µM
TGI [30]: 46.5 µM and 47.4 µM
GI50 [31]: 6.56 µM and 0.777 µM
GI50 [32]: 16.1 µM and 3.35 µM
TGI [32]: 78.2 µM and > 500 µM and 126 µM
GI50 [33]: 13.2 µM
TGI [33]: 50.9 µM and 183 µM
GI50 [34]: > 500 µM and 87.4 µM
TGI [34]: > 500 µM
GI50 [35]: 41.9 µM
TGI [35]: > 79.1 µM and 190 µM
TGI [36]: 53.6 µM and > 500 µM and 163 µM
GI50 [37]: 62.7 µM
TGI [37]: > 241 µM
TGI [38]: 126 µM
GI50 [39]: 770 nM (2×) and 3.44 µM
TGI [39]: 24.4 µM and 142 µM
GI50 [40]: 61.2 µM and 28.7 µM and 129 µM
TGI [40]: > 500 µM
GI50 [41]: 0.186 µM
TGI [41]: 40.7 µM and 16.5 µM
GI50 [42]: 2.55 µM
TGI [42]: 53.7 µM and 162 µM
GI50 [43]: 2.36 µM
TGI [43]: 78.7 µM
GI50 [44]: 2.03 µM and 19.5 µM and 4.63 µM
TGI [44]: 65.7 µM and > 500 µM and 155 µM
GI50 [45]: 96.8 µM and 79.3 µM
TGI [45]: 64.5 µM and > 500 µM and 171 µM
GI50 [46]: 7.15 µM and 50.9 µM and 8.34 µM
GI50 [47]: 2.11 µM and 0.38 µM
GI50 [48]: 3.99 µM
TGI [48]: > 79.1 µM and 112 µM
GI50 [49]: 1.81 µM and 15.7 µM and 3.1 µM
TGI [49]: 76.1 µM and > 500 µM and 182 µM
GI50 [50]: 41.9 µM and 6.06 µM
TGI [50]: > 500 µM and 95.7 µM
TGI [51]: 59.4 µM and > 500 µM and 220 µM
GI50 [52]: 325 µM
TGI [52]: 83.4 µM and > 500 µM and 137 µM
GI50 [53]: 34.8 µM
TGI [53]: > 77.6 µM and 109 µM
GI50 [54]: 9.27 µM
TGI [54]: > 80.6 µM and 201 µM

C1CN1c1nc(N2CC2)nc(N2CC2)n1
TGI [1]: 56.5 µM and 36.4 µM
TGI [2]: 17.3 µM
TGI [3]: 23.2 µM
TGI [4]: 20.5 µM
GI50 [5]: 11.1 µM
TGI [5]: 33.4 µM and 21.8 µM
GI50 [6]: 4.32 µM
TGI [6]: 45.3 µM and 41.2 µM
GI50 [7]: 13.3 µM
TGI [7]: 31.9 µM and 23 µM
GI50 [8]: 10.1 µM
TGI [8]: 50.2 µM and 24.6 µM
TGI [9]: 33 µM
TGI [10]: 17.6 µM
GI50 [11]: 4.36 µM
TGI [11]: 79.8 µM and 16.7 µM
GI50 [12]: 19.8 µM
TGI [12]: 36.4 µM and 31.3 µM
TGI [13]: 17.2 µM
GI50 [14]: 10.8 µM
TGI [14]: 27.3 µM and 25.7 µM
GI50 [15]: 5.11 µM
TGI [15]: 38.8 µM and 16.2 µM
GI50 [16]: 13.6 µM
TGI [16]: 28.2 µM and 22.5 µM
GI50 [17]: 3.75 µM
TGI [17]: 14.8 µM and 17 µM
TGI [18]: 40 µM
GI50 [19]: 8.99 µM
TGI [19]: 25.7 µM and 31.5 µM
GI50 [20]: 13.9 µM
TGI [20]: 41.1 µM and 36.6 µM
GI50 [21]: 5.92 µM
TGI [21]: 15.7 µM and 30.1 µM
TGI [22]: 24.7 µM and 14.3 µM
GI50 [23]: 13.7 µM
TGI [23]: 42 µM and 31.4 µM
GI50 [24]: 10.4 µM
TGI [24]: 23.8 µM and 18.3 µM
GI50 [25]: 1.39 µM
TGI [25]: 27.1 µM and 28.9 µM
GI50 [26]: 15 µM
TGI [26]: 42 µM and 33.3 µM
GI50 [27]: 6.6 µM
TGI [27]: 27.5 µM and > 50.1 µM
TGI [28]: 77.9 µM
GI50 [29]: 20.2 µM
TGI [29]: 69.3 µM and > 71.2 µM
TGI [30]: 19.6 µM
GI50 [31]: 0.195 µM
GI50 [32]: 15.9 µM
TGI [32]: 72.6 µM and 29.7 µM
TGI [33]: 64.8 µM and 35.4 µM
TGI [34]: 68.9 µM
GI50 [35]: 8.23 µM and 1.24 µM
TGI [35]: 76.6 µM and 19.6 µM
GI50 [36]: 3.32 µM
TGI [36]: 21.6 µM and 13.5 µM
GI50 [37]: 8.42 µM
TGI [37]: 45.1 µM and 19.1 µM
TGI [38]: 16.7 µM
GI50 [39]: 1.31 µM
TGI [39]: 19.7 µM and 24.9 µM
TGI [40]: 47.7 µM
TGI [41]: 20.5 µM
TGI [42]: 15.3 µM
GI50 [43]: 1.87 µM
TGI [43]: 24.8 µM and 27.5 µM
TGI [44]: 33.4 µM and 15.6 µM
GI50 [45]: 22.2 µM
TGI [45]: 55.5 µM and 47.4 µM
TGI [46]: 25.2 µM
GI50 [47]: 0.195 µM
TGI [47]: 24.5 µM and > 100 µM
GI50 [48]: 3.86 µM
TGI [48]: 23.9 µM and 34.9 µM
GI50 [49]: 4.99 µM
TGI [49]: 31 µM and 28.3 µM
GI50 [50]: 6.93 µM
TGI [50]: 19.6 µM and 14 µM
GI50 [51]: 7.84 µM
TGI [51]: 56.3 µM and > 54.9 µM
GI50 [52]: 8.04 µM
TGI [52]: 35.9 µM and 17.7 µM
GI50 [53]: 16.5 µM
TGI [53]: 35.8 µM and 29.9 µM
GI50 [54]: 1.28 µM
TGI [54]: 23.4 µM and 3.68 µM
